Test results as given in patent US20140031787A1, “FEEDBACK-BASED DIURETIC OR NATRIURETIC MOLECULE ADMINISTRATION” (Medtronic, Inc., priority 2012, published 2014).

Legend:
male dog = test: NICOM study: cardiac data in anesthetized, mechanically ventilated dog; format: in vivo; conditions: phenylephrine followed by SNP; for cardiac output (CO): dobutamine incremental infusion doses, esmolol after dobutamine
Method: In one embodiment, the monitor comprises two electrodes (2601, 2602) which carry out two roles simultaneously. The first role is to deliver a continuous low-voltage alternating electrical current. The second role is to sample at a very fast rate the signal emanating from a patient. The signals are then analyzed to determine stroke volume (SV), heart rate (HR), cardiac output (CO), stroke volume variation (SVV) and other hemodynamic information. In one embodiment, the two electrodes 2601 and 2602 are placed on the surface of the chest of a human being 2604 to collect cardiac data. Although a human being 2604 is depicted, one of ordinary skill will understand that any mammal can be the subject. Further, one of ordinary skill in the art will appreciate that the two electrodes 2601 and 2602 may be placed on different locations of the body of the subject to obtain data.
A noninvasive cardiac output monitoring (NICOM) monitor was utilized to measure cardiac data from an anesthetized, mechanically ventilated, 54 lb, 42 inch (nose to base of tail) male dog. FIGS. 23-27 depict the cardiac data measured by the NICOM monitor.
The gap in data at 11:20 indicates electrocautery interference when the chest of the dog was opened. FIG. 24 depicts the data in response to sequential fluid boluses. An approximate 20% increase in CO was detected reflecting changes in both SV and HR. […] FIG. 26 depicts the cardiodepressant effect of the ultra-short beta-blocker esmolol given after dobutamine and recalibration. […] FIG. 27 depicts the response to increasing blood pressure with phenylephrine followed by decreasing blood pressure with sodium nitroprusside (SNP). Prior to this intervention, the dog chest had been opened and commercially available flow monitors had been implanted on the pulmonary artery (PA). Baseline PA flow data, which was measured by the implantable monitors, was 2.7 L/min. The PA flow data measured by the NICOM monitor was 2.812 L/min.

[1] = tested on: canine model high-rate paced (HRP); test: Pharmacodynamic study of VD by subcutaneous infusion in high-rate paced canine heart failure model
From the text: The pharmacodynamic effects of VD delivered by subcutaneous infusion were investigated in a canine model high-rate paced (HRP) to a heart rate of 240 bpm (ventricular pacing) over a period of 10 days to simulate HF. The canines were divided into a control group and an experimental group. The control group received a continuous subcutaneous infusion of the Tris buffer without VD over the course of the 10 day period. The experimental group received continuous subcutaneous infusion of VD dissolved in Tris buffer at a dosing rate of 100 ng/kg·min based upon the body weight of individual canines.
Seven days prior to the beginning of HRP (Day −7), all dogs were instrumented for ventricular pacing with an IPG (implantable pulse generator) including an RA (right atrium) and RV (right ventricle) lead, and a DSI (Digital Sciences International) device in the femoral artery for arterial blood pressure monitoring. Glomerular filtration rate (GFR) was measured by iohexol clearance on the day before the beginning of HRP (Day −1). On Day 0, high-rate pacing was initiated at a rate of 240 BPM (beats per minute) and maintained continuously over the course of a 10 day period (Days 0-10). After HRP was started on Day 0, urine, blood, and hemodynamic data was collected from conscious animals to serve as a baseline.
On Days 0-10, in combination with pacing, each animal received continuous subcutaneous (SQ) infusion of an agent (Tris buffer solution for control animals and vessel dilator in Tris buffer for experimental animals) delivered via external catheter and pump. SQ infusion was performed using Medtronic MiniMed® 407C pumps equipped with 3.0 mL reservoirs (#MMT-103A) and Medtronic Silhouette® combo infusion sets (#MMT373). GFR measurements were repeated on Day 9. On Day 10 (with HRP On), a pre-term monitor was performed for urine and hemodynamic data collection on conscious animals. Once the data was collected, HRP was turned off and the animals were euthanized.

Dahl/SS rats = test: Pharmacodynamic study of VD by SQ infusion in Dahl/SS rats on 4% salt diet; conditions: for blood pressure compared with 4% vehicle control group at week 3: week 3, p-value<0.05
Method: The pharmacodynamic effects of VD were investigated in a rat model. Forty male Dahl/SS rats were shipped to the animal facilities at PhysioGenix, Inc. (Milwaukee, Wis.). The rats were maintained on a low-salt diet and allowed to acclimate. After acclimation, animals had baseline parameters collected while on the low-salt diet. Baseline tail-cuff blood pressures and echocardiograms were measured. Baseline urine was collected for analysis of protein and albumin. Animals were then randomly assigned to one of 4 groups (10 animals per group):
1. Vehicle Control; low-salt diet, n=10 2. Vehicle Control; 4% salt diet, n=10 3. Vessel dilator, 100 ng/kg/min, 4% salt diet, n=10 4. Vessel dilator, 300 ng/kg/min, 4% salt diet, n=10
The vehicle control groups were infused with a citrate-mannitol-saline buffer (0.66 mg/mL citric acid, 6.43 mg/mL sodium citrate, 40 mg/mL mannitol, 9 mg/mL NaCl). The animals were on a Teklad 7034 (low-salt) diet or Dyets AIN-76A 4% salt diet, as indicated, throughout a 6 week course of the study and had free access to water.
Alzet® minipumps (Durect, Corp.) were surgically implanted on Days 1, 15, and 29 of the study to maintain continuous vehicle or drug dispensing at the desired dose for a total period of 6 weeks. Urine was collected at baseline, 2, 4 and 6 weeks after the initiation of the treatment to assess proteinuria and albuminuria. After six weeks of treatment, the animals were then euthanized.

## CC(CCc1ccc(O)cc1)NCCc1ccc(O)c(O)c1 (stereo not drawn) [dobutamine]
Male dog; NICOM monitor
  cardiac output (CO): marked increase

## COC(=O)CCc1ccc(OCC(O)CNC(C)C)cc1 (stereo not drawn) [esmolol]
Male dog; NICOM monitor
  cardiac output (CO): marked decline

## CNC[C@H](O)c1cccc(O)c1 [phenylephrine]
Male dog; NICOM monitor
  cardiac output (CO): reduced
  heart rate (HR): reflex slowing
Male dog
  blood pressure: elevated

## vessel dilator (EVVPPQVLSEPNEEAGAALSPLPEVPPWTGEVSPAQR; Vessel dilator; UniProt P01160 56-92, looked up) [VD]
[1]; VD 100 ng/kg·min SQ infusion, two-way repeated measures ANOVA
  difference in pulmonary capillary wedge pressure between control and experimental group on Day 10: does not appear to be statistically significant
[1]; VD 100 ng/kg·min continuous SQ infusion
  extent of increase in pulmonary capillary wedge pressure Day 0 to Day 10 compared with control group: smaller than that observed in the control group
[1]; VD 100 ng/kg·min continuous SQ infusion, Day 10, p-value<0.05
  increase in right atrial pressure compared with control group: significantly less than for the control group
[1]; VD 100 ng/kg·min continuous SQ infusion, HRP 240 bpm for 10 days
  mean right atrial pressure, change from Day 0 to Day 10: increased slightly
Dahl/SS rats; high-dose VD 300 ng/kg/min SQ infusion
  average blood pressure compared with vehicle control group on 4% salt diet: attenuated blood pressure
Dahl/SS rats; high-dose VD 300 ng/kg/min
  blood pressure compared with 4% vehicle control group at week 3: statistically significant decrease
  decrease in blood pressure compared with 4% vehicle control group at week 5: not as statistically significant
Dahl/SS rats; low-dose VD 100 ng/kg/min SQ infusion
  average blood pressure compared with vehicle control group on 4% salt diet: attenuated blood pressure
Dahl/SS rats; low-dose VD 100 ng/kg/min
  blood pressure compared with 4% vehicle control group at week 3: statistically significant decrease
  decrease in blood pressure compared with 4% vehicle control group at week 5: not as statistically significant
